Values of other authors as cited in PMC11224109, “Synthesis and preclinical evaluation of novel ^18F-vancomycin-based tracers for the detection of bacterial infections using positron emission tomography” (European Journal of Nuclear Medicine and Molecular Imaging, 2024).

Details: cited from earlier work

CN[C@H](CC(C)C)C(=O)N[C@H]1C(=O)N[C@@H](CC(N)=O)C(=O)N[C@H]2C(=O)N[C@H]3C(=O)N[C@H](C(=O)N[C@H](C(=O)O)c4cc(O)cc(O)c4-c4cc3ccc4O)[C@H](O)c3ccc(c(Cl)c3)Oc3cc2cc(c3O[C@@H]2O[C@H](CO)[C@@H](O)[C@H](O)[C@H]2O[C@H]2C[C@](C)(N)[C@H](O)[C@H](C)O2)Oc2ccc(cc2Cl)[C@H]1O [vancomycin]
Clinically relevant serum levels: about 15 µg/mL
